{"source": "patent US9650390B2", "about": "“Water-soluble taxane derivatives and uses thereof” (priority 2014, dated 2017)", "key": {"[1]": {"assay": "In vitro dissociation in blood plasma of rabbit", "format": "in vitro ADME, New Zealand white rabbits", "details": "fresh New Zealand white rabbit plasma, 37° C.", "method": "The obtained water soluble taxane derivatives of the following formulae were formulated as 0.2 mg/ml aqueous solutions. […]"}, "[2]": {"assay": "In vitro dissociation in blood plasma of rat", "format": "in vitro ADME, SD rats", "details": "fresh SD rat plasma, 37° C.; for Sampling time/Dissociation percent (%) 2 min: 2 min incubation; for Sampling time/Dissociation percent (%) 5 min: 5 min incubation; for Sampling time/Dissociation percent (%) 10 min: 10 min incubation", "method": "The obtained water soluble taxane derivatives of the following formulae were formulated as 0.2 mg/ml aqueous solutions. […] After 2 min, 5 min and 10 min of incubation, 0.2 ml of solutions were respectively taken from each of the samples, and added to acetonitrile (0.4 ml) cooled to −20° C. for precipitation of protein."}, "[3]": {"system": "human ovarian cancer SK-OV-3", "details": "24 mg/kg, D0-4 IV; for Body weight change (%) D4: nude mice", "excerpt": "Purpose: to evaluate and compare the inhibitory activity of the water soluble paclitaxel derivatives, paclitaxel and Abraxane® on subcutaneously xenografted tumor of human ovarian cancer SK-OV-3 in nude mice.\nHuman ovarian cancer SK-OV-3 cells were subcutaneously inoculated to nude mice. After the tumor volume reached 100-150 mm^3, the animals were randomly divided into groups (D0), and administered with the water soluble paclitaxel derivatives of the following formula, paclitaxel, and Abraxane®, respectively once per day for 5 days. The tumor volume was measured 2-3 times per week, the animals were weighed and the data were recorded until day 22 (D22) after grouping.\n(§1) The tumor volume (V) was calculated according to the equation: V=½×a×b^2, wherein a and b represent the length and the width, respectively.\nT/C (%)=(T−T0)/(C−C0)×100, wherein T and C represent the tumor volume at the end of the experiment, and T0 and C0 represent the tumor volume at the beginning of the experiment."}, "[4]": {"system": "human prostate cancer PC-3", "assay": "Inhibitory activity of cabazitaxel derivatives on subcutaneously xenografted tumor PC-3 in nude mice", "details": "13 mg/kg, D0 IV; for Weight change (%) D6: nude mice; for T/C (%) D20 / Tumor volume (mm^3) (D20) / Tumor inhibitory percent (%) D20 / Tumor volume (mm^3) (D0): PC-3 xenograft in nude mice; for Tumor inhibitory percent (%) D20: P = 0.000 vs control; for Tumor volume (mm^3) (D0): baseline at grouping (D0)", "excerpt": "Purpose: to evaluate and compare the inhibitory activity of the water soluble cabazitaxel derivatives and cabazitaxel on subcutaneously xenografted tumor of human prostate cancer PC-3 in nude mice.\nHuman prostate cancer PC-3 cells were subcutaneously inoculated into nude mice. After the tumor volume reached 100-150 mm^3, the animals were randomly divided into several groups, and administered with the water soluble cabazitaxel derivatives of the following formula and cabazitaxel, respectively once on the same day (D0). The tumor volume was measured 2-3 times per week, the animals were weighed and the data were recorded until day 20 (D20) after grouping.\nas §1\nT/C (%)=(T−T0)/(C−C0)×100, wherein T and C represent the tumor volume at the end of the experiment; and T0 and C0 represent the tumor volume at the beginning of the experiment."}}}
{"compound": "CC(=O)O[C@H]1C(=O)[C@@]2(C)[C@H]([C@H](OC(=O)c3ccccc3)[C@]3(O)C[C@H](OC(=O)[C@H](OC(=O)[C@H](F)CCN(C)C)[C@@H](NC(=O)c4ccccc4)c4ccccc4)C(C)=C1C3(C)C)[C@]1(OC(C)=O)CO[C@@H]1C[C@@H]2O.CS(=O)(=O)O", "note": "[Compound C1, 2′-O-[4-N,N-dimethylamino-2(R)-fluorobutyryl]paclitaxel methanesulfonate]", "values": [{"measurement": "Sampling time/Dissociation percent (%) 2 min", "setting": "[1]", "result": 77.2, "unit": "%"}, {"measurement": "Sampling time/Dissociation percent (%) 5 min", "setting": "[1]", "result": 98.4, "unit": "%"}, {"measurement": "Sampling time/Dissociation percent (%) 10 min", "setting": "[1]", "result": 100, "unit": "%"}, {"measurement": "Sampling time/Dissociation percent (%) 2 min", "setting": "[2]", "result": 64.3, "unit": "%"}, {"measurement": "Sampling time/Dissociation percent (%) 5 min", "setting": "[2]", "result": 97.0, "unit": "%"}, {"measurement": "Sampling time/Dissociation percent (%) 10 min", "setting": "[2]", "result": 100, "unit": "%"}, {"measurement": "Body weight change (%) D4", "setting": "[3]", "result": "−5.9", "unit": "%"}, {"measurement": "T/C (%) D22", "setting": "[3]; SK-OV-3 xenograft in nude mice", "result": "−63", "unit": "%"}, {"measurement": "Tumor volume (mm^3) (D0)", "setting": "[3]; baseline at grouping (D0), SK-OV-3 xenograft in nude mice", "result": "133.6 ± 9.5", "unit": "mm^3"}]}
{"compound": "CC(=O)O[C@H]1C(=O)[C@@]2(C)[C@H]([C@H](OC(=O)c3ccccc3)[C@]3(O)C[C@H](OC(=O)[C@H](OC(=O)[C@@H](F)CCN(C)C)[C@@H](NC(=O)c4ccccc4)c4ccccc4)C(C)=C1C3(C)C)[C@]1(OC(C)=O)CO[C@@H]1C[C@@H]2O.CS(=O)(=O)O", "note": "[Compound C2, 2′-O-[4-N,N-dimethylamino-2(S)-fluorobutyryl]paclitaxel methanesulfonate]", "values": [{"measurement": "Sampling time/Dissociation percent (%) 2 min", "setting": "[1]", "result": 69.7, "unit": "%"}, {"measurement": "Sampling time/Dissociation percent (%) 5 min", "setting": "[1]", "result": 98.1, "unit": "%"}, {"measurement": "Sampling time/Dissociation percent (%) 10 min", "setting": "[1]", "result": 100, "unit": "%"}, {"measurement": "Sampling time/Dissociation percent (%) 2 min", "setting": "[2]", "result": 62.8, "unit": "%"}, {"measurement": "Sampling time/Dissociation percent (%) 5 min", "setting": "[2]", "result": 96.5, "unit": "%"}, {"measurement": "Sampling time/Dissociation percent (%) 10 min", "setting": "[2]", "result": 100, "unit": "%"}, {"measurement": "Body weight change (%) D4", "setting": "[3]", "result": "−5.8", "unit": "%"}, {"measurement": "T/C (%) D22", "setting": "[3]; SK-OV-3 xenograft in nude mice", "result": "−61", "unit": "%"}, {"measurement": "Tumor volume (mm^3) (D22)", "setting": "[3]; SK-OV-3 xenograft in nude mice", "result": "51.2 ± 11.2", "unit": "mm^3"}]}
{"compound": "CC(=O)O[C@H]1C(=O)[C@@]2(C)[C@H]([C@H](OC(=O)c3ccccc3)[C@]3(O)C[C@H](OC(=O)[C@H](OC(=O)C(F)CCN(C)C)[C@@H](NC(=O)c4ccccc4)c4ccccc4)C(C)=C1C3(C)C)[C@]1(OC(C)=O)CO[C@@H]1C[C@@H]2O.CS(=O)(=O)O", "note": "(stereo partly drawn) [Compound C3, 2′-O-[4-N,N-dimethylamino-2(R,S)-fluorobutyryl]paclitaxel methanesulfonate]", "values": [{"measurement": "Sampling time/Dissociation percent (%) 2 min", "setting": "[1]", "result": 76.5, "unit": "%"}, {"measurement": "Sampling time/Dissociation percent (%) 5 min", "setting": "[1]", "result": 94.6, "unit": "%"}, {"measurement": "Sampling time/Dissociation percent (%) 10 min", "setting": "[1]", "result": 100, "unit": "%"}, {"measurement": "Sampling time/Dissociation percent (%) 2 min", "setting": "[2]", "result": 63.7, "unit": "%"}, {"measurement": "Sampling time/Dissociation percent (%) 5 min", "setting": "[2]", "result": 96.8, "unit": "%"}, {"measurement": "Sampling time/Dissociation percent (%) 10 min", "setting": "[2]", "result": 100, "unit": "%"}, {"measurement": "Body weight change (%) D4", "setting": "[3]", "result": "−6.0", "unit": "%"}, {"measurement": "T/C (%) D22", "setting": "[3]; SK-OV-3 xenograft in nude mice", "result": "−64", "unit": "%"}, {"measurement": "Tumor volume (mm^3) (D22)", "setting": "[3]; SK-OV-3 xenograft in nude mice", "result": "50.6 ± 9.7", "unit": "mm^3"}]}
{"compound": "CCN(C)CC[C@@H](F)C(=O)O[C@@H](C(=O)O[C@H]1C[C@@]2(O)[C@@H](OC(=O)c3ccccc3)[C@@H]3[C@]4(OC(C)=O)CO[C@@H]4C[C@H](OC)[C@@]3(C)C(=O)[C@H](OC)C(=C1C)C2(C)C)[C@@H](NC(=O)OC(C)(C)C)c1ccccc1.O=C(O)/C=C\\C(=O)O", "note": "[Compound C32, 2′-O-[4-N-methyl-N-ethylamino-2(R)-fluorobutyryl]cabazitaxel maleate]", "values": [{"measurement": "Weight change (%) D6", "setting": "[4]", "result": "−14.7", "unit": "%"}, {"measurement": "T/C (%) D20", "setting": "[4]", "result": "−56", "unit": "%"}, {"measurement": "Tumor volume (mm^3) (D20)", "setting": "[4]", "result": "35.8 ± 12.7", "unit": "mm^3"}, {"measurement": "Tumor inhibitory percent (%) D20", "setting": "[4]", "result": 128, "unit": "%"}, {"measurement": "Tumor volume (mm^3) (D0)", "setting": "[4]", "result": "112.4 ± 3.0", "unit": "mm^3"}]}
{"compound": "CCN(CC)CC[C@@H](F)C(=O)O[C@@H](C(=O)O[C@H]1C[C@@]2(O)[C@@H](OC(=O)c3ccccc3)[C@@H]3[C@]4(OC(C)=O)CO[C@@H]4C[C@H](OC)[C@@]3(C)C(=O)[C@H](OC)C(=C1C)C2(C)C)[C@@H](NC(=O)OC(C)(C)C)c1ccccc1.CS(=O)(=O)O", "note": "[Compound C33, 2′-O-[4-N,N-diethylamino-2(R)-fluorobutyryl]cabazitaxel methanesulfonate]", "values": [{"measurement": "Weight change (%) D6", "setting": "[4]", "result": "−15.1", "unit": "%"}, {"measurement": "T/C (%) D20", "setting": "[4]", "result": "−50", "unit": "%"}, {"measurement": "Tumor volume (mm^3) (D20)", "setting": "[4]", "result": "38.6 ± 13.4", "unit": "mm^3"}, {"measurement": "Tumor inhibitory percent (%) D20", "setting": "[4]", "result": 114, "unit": "%"}, {"measurement": "Tumor volume (mm^3) (D0)", "setting": "[4]", "result": "112.0 ± 2.4", "unit": "mm^3"}]}
